From patent publication US5565336A, “Carboxy terminal IL-6 muteins” (University of North Carolina at Chapel Hill, priority 1994, dated 1996)

Columns and labels:
IL-6 receptor = assay: binding competition assay / Scatchard analysis with 125I-IL-6 on human myeloma cell line U-266; details: Kd wild-type IL-6 divided by Kd mutein; result in words
Protocol: The affinity may be determined with a Scatchard analysis and quantitated as a dissociation constant, Kd.
Binding competition assays are performed using human recombinant IL-6 derived from Escherichia coli (Genetics Institute, Cambridge, Mass.). IL-6 is radioiodinated using the Bolton-Hunter reagent (New England Nuclear, Wilmington, Del.) as described by Faltynek, C. […] The specific activity of the radiolabelled IL-6 is 22 μC/μg. […] This medium is also used for making the dilutions of the IL-6 muteins and as the binding medium. The fetal bovine serum batches are routinely tested for IL-6 activity and only batches that show negligible IL-6 activity are used for competition binding assays. […]
Binding is performed by sealing the plates with acetate plate sealers (ICN Biomedicals, Costa Mesa, Calif.) and end-over rotation for 3 hours at 4° C. […] The cell pellets are washed once with 200 μl of ice-cold Ca^++ /Mg^+ free Hank's balanced salt solution (HBSS), resuspended in 200 μl of HBSS, transferred to scintillation vials and counted in a gamma counter.
The results of the Scatchard and competition binding assays are analyzed using a non-linear curve fitting program LIGAND. […] An apparent IC50 is calculated using the EBDA/LIGAND program.

[1] = test system: human hepatoma cell line HEP3B2; assay: hepatocyte stimulation (fibrinogen induction) assay using human hepatoma cell line HEP3B2; assay type: cell-based; details: in vitro activity on a human hepatoma cell line; result in words
Text: The biological activity of wild-type IL-6 and IL-6 muteins can be measured by standard assays for measuring IL-6 activity, as is known in the art. For example, the in vitro biological activity of the IL-6 muteins of the invention may be compared with native IL-6 in a fibrinogen induction assay using a human hepatoma cell line, HEP3B2. When determined in such an assay and expressed as a percentage of activity of native, wild-type, IL-6, the activity of which is defined as 100%, the biological activity of the muteins of the present invention is at least 125%, preferably at least 150%. (See Example 3 and FIG. 6)
The hepatocyte stimulation assay using human hepatoma cell line HEP3B2 is carried out in duplicate serial dilutions of three or more independent preparations of each IL-6 mutein. The biological activity is determined from dose response curves prepared for each protein preparation. To minimize variation, a duplicate protein preparation of wild-type IL-6 is used in each 96-well tissue culture plate to calculate the activity of two (HEP3B2) IL-6 muteins on the same plate as a percentage of wild-type IL-6 activity. (See FIG. 6)
Cells from the human hepatoma cell line HEP3B2 are maintained in DMEM-H medium supplemented with 10% fetal bovine serum and penicillin/streptomycin. […] The OD405 is determined on a Vmax ELISA plate reader (Molecular Devices Corp., Palo Alto, Calif.). […]

IL-6 mutein with Phenylalanine at position 171 of the native sequence (Phe^171) replaced by Leucine (Leu): mutein of human IL-6 with substitution of Phenylalanine by Leucine at position 171; SEQ. ID. NOS. 3 and 4
receptor binding capacity compared to wild-type IL-6 (IL-6 receptor): increased receptor binding capacity
biological activity compared to wild-type IL-6 [1]: higher biological activity
